Measurements taken from ChEMBL document CHEMBL5726331, “Pyridinone and pyrimidinone derivatives as factor Xia” (2017).

Target: Coagulation factor XI (Homo sapiens, UniProt P03951)
Assay: Enzyme Activity Assay: Human Factor XIa (Haematologic Technologies Inc.) activity was measured at an enzyme concentration of 0.1 U/mL in 150 mM NaCl, 5 mM KCl, 1 mg/mL PEG6000, 50 mM HEPES-NaOH (pH7.4) with 300 μM S-2366 (pyroGlu-Pro-Arg-pNA, Chromogenix).

Coagulation factor XI, sequence (P03951 19-387 limits assumed): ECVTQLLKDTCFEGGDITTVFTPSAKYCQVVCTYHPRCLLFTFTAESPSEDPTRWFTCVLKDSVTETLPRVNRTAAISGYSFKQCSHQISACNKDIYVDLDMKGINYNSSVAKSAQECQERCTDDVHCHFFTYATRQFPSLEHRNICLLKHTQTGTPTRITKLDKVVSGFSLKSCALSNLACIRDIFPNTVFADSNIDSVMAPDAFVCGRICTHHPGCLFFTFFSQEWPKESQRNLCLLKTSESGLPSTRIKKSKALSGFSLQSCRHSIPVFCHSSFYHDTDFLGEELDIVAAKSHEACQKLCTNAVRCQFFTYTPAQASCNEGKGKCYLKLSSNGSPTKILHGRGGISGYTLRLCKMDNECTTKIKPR
Coagulation factor XI, sequence (P03951 388-625 limits assumed): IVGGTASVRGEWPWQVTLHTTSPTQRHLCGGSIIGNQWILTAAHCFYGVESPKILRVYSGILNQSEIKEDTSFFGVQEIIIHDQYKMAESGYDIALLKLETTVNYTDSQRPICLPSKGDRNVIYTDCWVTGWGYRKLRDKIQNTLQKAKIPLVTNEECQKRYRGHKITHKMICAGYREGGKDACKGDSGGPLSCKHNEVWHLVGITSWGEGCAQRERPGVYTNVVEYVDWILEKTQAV

SMILES | IC50 [nM]
COC(=O)Nc1ccc(-c2[nH]c([C@H](C)NC(=O)/C=C/c3cc(Cl)ccc3-n3cnnn3)nc2Cl)cc1 | 40
COC(=O)Nc1ccc(-c2[nH]c(CNC(=O)/C=C/c3cc(Cl)ccc3-n3cnnn3)nc2Cl)cc1 | 130
